This is an account of results in US9278962B2 (Cytokinetics, Inc., priority 2011, dated 2016).

For this experiment, the system named is rabbit skeletal myofibrils (approximately 90% fast fibers). The experiment can be described thus: Activation of fast skeletal myofibrils (PUMA coupled-enzyme ATPase assay, AC1.4). The settings on record: concentration at which the compound increased enzymatic activity by 40%, calcium at pCa25. It is filed as biochemical.

In the case of `Fc1cccnc1[C@]1(CNc2nnc(-c3ccc(Br)s3)s2)C[C@@H](F)C1` [5-(5-bromothiophen-2-yl)-N-(((trans)-3-fluoro-1-(3-fluoropyridin-2-yl)cyclobutyl)methyl)-1,3,4-thiadiazol-2-amine], the “Mean AC1.4” value (Table 3) was “B (B=1-10 uM)”. Same read-out and setting: then `CCc1ccc(F)c(-c2nnc(NC[C@]3(c4ncccc4F)C[C@H](F)C3)s2)c1` [5-(5-ethyl-2-fluorophenyl)-N-((3-fluoro-1-(3-fluoropyridin-2-yl)cyclobutyl)methyl)-1,3,4-thiadiazol-2-amine], with “A (A=<1 uM)”. Regarding `CC(C)(CNc1nc(-c2ccc(O)nc2)ns1)c1ccc(F)cc1` [5-(5-{[2-(4-fluorophenyl)-2-methylpropyl]amino}-1,2,4-thiadiazol-3-yl)pyridin-2-ol], for the setting “Table 2”, the “Mean AC1.4” value is on record as “B (B=1-10 uM)”. Consider `CC(C)(CNc1nc(-c2ccc(C(N)=O)nc2)ns1)c1ccc(F)cc1` [5-(5-{[2-(4-fluorophenyl)-2-methylpropyl]amino}-1,2,4-thiadiazol-3-yl)pyridine-2-carboxamide], for which the “Mean AC1.4” value (Table 2) is on record as “A (A=<1 uM)”.

Take `CC(C)(CNc1nc(-c2cncc(C#N)c2)ns1)c1ccc(F)cc1` [5-(5-{[2-(4-fluorophenyl)-2-methylpropyl]amino}-1,2,4-thiadiazol-3-yl)pyridine-3-carbonitrile]: under “Table 2”, the “Mean AC1.4” value is reported as “B (B=1-10 uM)”. On the same count and under the same terms, the value for `CC(C)(CNc1nc(-c2cncc(C(N)=O)c2)ns1)c1ccc(F)cc1` [5-(5-{[2-(4-fluorophenyl)-2-methylpropyl]amino}-1,2,4-thiadiazol-3-yl)pyridine-3-carboxamide] was “A (A=<1 uM)”; that for `C[C@H](CNc1nc(-c2ccc(O)nc2)ns1)c1ccc(F)cc1` [5-(5-{[(2S)-2-(4-fluorophenyl)propyl]amino}-1,2,4-thiadiazol-3-yl)pyridin-2-ol] was “B (B=1-10 uM)”; that for `C[C@H](CNc1nc(-c2cncc(C#N)c2)ns1)c1ccc(F)cc1` [5-(5-{[(2S)-2-(4-fluorophenyl)propyl]amino}-1,2,4-thiadiazol-3-yl)pyridine-3-carbonitrile] was “C (C=10-20 uM)”. Still for that read-out and setting: the value for `C[C@H](CNc1nc(-c2cncc(C(N)=O)c2)ns1)c1ccc(F)cc1` [5-(5-{[(2S)-2-(4-fluorophenyl)propyl]amino}-1,2,4-thiadiazol-3-yl)pyridine-3-carboxamide] was “B (B=1-10 uM)”. For the compound `Fc1cccnc1C1(CNc2nnc(Cc3ccccc3)s2)CCC1` [5-benzyl-N-((1-(3-fluoropyridin-2-yl)cyclobutyl)methyl)-1,3,4-thiadiazol-2-amine], the “Mean AC1.4” value (Table 3) is reported as “D (D=>20 uM)”.

On to `CC(C)(CNc1nc2cc(Cl)ccc2s1)c1ccc(F)cc1` [5-chloro-N-(2-(4-fluorophenyl)-2-methylpropyl)benzo[d]thiazol-2-amine], for which the “Mean AC1.4” value (Table 4) is “B (B=1-10 uM)”.

As for `Fc1cccnc1C1(CNc2nnc(C3CCCC3)s2)CCC1` [5-cyclopentyl-N-((1-(3-fluoropyridin-2-yl)cyclobutyl)methyl)-1,3,4-thiadiazol-2-amine], for the setting “Table 3”, the “Mean AC1.4” value was “B (B=1-10 uM)”. `CC(C)(CNc1nc(C(N)=O)ns1)c1ccc(F)cc1` [5-{[2-(4-Fluorophenyl)-2-methylpropyl]amino}-1,2,4-thiadiazole-3-carboxamide]: the “Mean AC1.4” value (Table 2) is given as “C (C=10-20 uM)”. As for `CC(C)(CNc1nc2ccc(Cl)cc2s1)c1ccc(F)cc1` [6-chloro-N-(2-(4-fluorophenyl)-2-methylpropyl)benzo[d]thiazol-2-amine], the “Mean AC1.4” value (Table 4) is listed as “A (A=<1 uM)”. As to `Fc1cccnc1C1(CNc2nc3ccc(Cl)cc3s2)CCC1` [6-chloro-N-((1-(3-fluoropyridin-2-yl)cyclobutyl)methyl)benzo[d] thiazol-2-amine], the “Mean AC1.4” value (Table 4) is recorded as “B (B=1-10 uM)”. The same measure, in the same setting: the value for `COc1cccnc1C1(CNc2nc3ccc(Cl)cc3s2)CCC1` [6-chloro-N-((1-(3-methoxypyridin-2-yl)cyclobutyl)methyl)benzo[d] thiazol-2-amine] was “B (B=1-10 uM)”. On the same count and under the same terms, then `Fc1ccc(C2(CNc3nc4ccc(Cl)cc4s3)CCC2)cc1` [6-chloro-N-((1-(4-fluorophenyl)cyclobutyl)methyl) benzo[d]thiazol-2-amine], with “A (A=<1 uM)”; and `COc1ccc(C2(CNc3nc4ccc(Cl)cc4s3)CCC2)nc1` [6-chloro-N-((1-(5-methoxypyridin-2-yl)cyclobutyl)methyl)benzo[d] thiazol-2-amine], with “B (B=1-10 uM)”; and `Clc1ccc2nc(NCC3(c4ccccn4)CCC3)sc2c1` [6-chloro-N-((1-(pyridin-2-yl)cyclobutyl)methyl)benzo[d] thiazol-2-amine], with “B (B=1-10 uM)”. As to `CC(C)(CNc1nc2cccc(Cl)c2s1)c1ccc(F)cc1` [7-chloro-N-(2-(4-fluorophenyl)-2-methylpropyl)benzo[d]thiazol-2-amine], for the setting “Table 4”, the “Mean AC1.4” value was “B (B=1-10 uM)”.

Take `COc1cccc(Cc2nsc(NCCc3ccc4c(c3)OCO4)n2)c1` [(2-(2H-benzo[d]1,3-dioxolan-5-yl)ethyl){3-[(3-methoxyphenyl)methyl](1,2,4-thiadiazol-5-yl)}amine]: the “Mean AC1.4” value (Table 2) is “D (D=>20 uM)”.

As to `COc1cccc(Cc2nsc(Nc3ccc(Cl)c(Cl)c3)n2)c1` [(3,4-dichlorophenyl){3-[(3-methoxyphenyl)methyl](1,2,4-thiadiazol-5-yl)}amine], for the setting “Table 2”, the “Mean AC1.4” value was “D (D=>20 uM)”. The same measure, in the same setting: then `Fc1ccc(Cc2nsc(Nc3ccc(Cl)c(Cl)c3)n2)cc1` [(3,4-dichlorophenyl){3-[(4-fluorophenyl)methyl](1,2,4-thiadiazol-5-yl)}amine], with “D (D=>20 uM)”; and `CCc1nsc(NCC(C)(C)c2ccc(F)cc2)n1` [(3-ethyl(1,2,4-thiadiazol-5-yl))[2-(4-fluorophenyl)-2-methylpropyl]amine], with “B (B=1-10 uM)”.

In the case of `CC(C)(O)/C=C/c1nsc(NCC(C)(C)c2ccc(F)cc2)n1` [(3E)-4-(5-{[2-(4-fluorophenyl)-2-methylpropyl]amino}(1,2,4-thiadiazol-3-yl))-2-methylbut-3-en-2-ol], the “Mean AC1.4” value (Table 2) is “B (B=1-10 uM)”.

In the case of `CC(C)(CNc1nc(CCN2CC[C@@H](O)C2)ns1)c1ccc(F)cc1` [(3R)-1-[2-(5-{[2-(4-fluorophenyl)-2-methylpropyl]amino}(1,2,4-thiadiazol-3-yl))ethyl]pyrrolidin-3-ol], the “Mean AC1.4” value (Table 2) is given as “C (C=10-20 uM)”.

Turning to `CC(C)(CNc1nc(CCN2CC[C@H](O)C2)ns1)c1ccc(F)cc1` [(3S)-1-[2-(5-{[2-(4-fluorophenyl)-2-methylpropyl]amino}(1,2,4-thiadiazol-3-yl))ethyl]pyrrolidin-3-ol], where the note is “Table 2”, the “Mean AC1.4” value is given as “C (C=10-20 uM)”. With `CC(C)(CNc1nc(CN2CC[C@H](O)C2)ns1)c1ccc(F)cc1` [(3S)-1-[(5-{[2-(4-fluorophenyl)-2-methylpropyl]amino}(1,2,4-thiadiazol-3-yl))methyl]pyrrolidin-3-ol], the “Mean AC1.4” value (Table 2) is recorded as “D (D=>20 uM)”. Regarding `COc1cccc(Cc2nsc(Nc3ccc(Cl)cc3)n2)c1` [(4-chlorophenyl){3-[(3-methoxyphenyl)methyl](1,2,4-thiadiazol-5-yl)}amine], the “Mean AC1.4” value (Table 2) was “D (D=>20 uM)”.

For `Fc1ccc(Cc2nsc(Nc3ccc(Cl)cc3)n2)cc1` [(4-chlorophenyl){3-[(4-fluorophenyl)methyl](1,2,4-thiadiazol-5-yl)}amine], the “Mean AC1.4” value (Table 2) was “D (D=>20 uM)”.

Consider `CC(C)(CNc1nc(-c2cccnc2)no1)c1ccc(F)cc1` [N-(2-(4-fluorophenyl)-2-methylpropyl)-3-(pyridin-3-yl)-1,2,4-oxadiazol-5-amine], for which the “Mean AC1.4” value (Table 5) was “C (C=10-20 uM)”. With `COc1ccc2nc(NCC(C)(C)c3ccc(F)cc3)sc2c1` [N-(2-(4-fluorophenyl)-2-methylpropyl)-6-methoxybenzo[d]thiazol-2-amine], where the note is “Table 4”, the “Mean AC1.4” value is “A (A=<1 uM)”. Same read-out and setting: then `CC(C)(CNc1nc2ccccc2s1)c1ccc(F)cc1` [N-(2-(4-fluorophenyl)-2-methylpropyl)benzo[d]thiazol-2-amine], with “B (B=1-10 uM)”. In the case of `Fc1cccnc1C1(CNc2cnn(-c3ccccc3)c2)CCC1` [N-((1-(3-fluoropyridin-2-yl)cyclobutyl)methyl)-1-phenyl-1H-pyrazol-4-amine], the “Mean AC1.4” value (Table 5) was “D (D=>20 uM)”.

Consider `Fc1cccnc1C1(CNc2cnc(-c3ccccc3)s2)CCC1` [N-((1-(3-fluoropyridin-2-yl)cyclobutyl)methyl)-2-phenylthiazol-5-amine], for which, for the setting “Table 5”, the “Mean AC1.4” value was “D (D=>20 uM)”.

Regarding `Cc1nc(NCC2(c3ncccc3F)CCC2)sc1-c1ccccc1` [N-((1-(3-fluoropyridin-2-yl)cyclobutyl)methyl)-4-methyl-5-phenylthiazol-2-amine], the “Mean AC1.4” value (Table 5) was “A (A=<1 uM)”. Same read-out and setting: then `Fc1cccnc1C1(CNc2nc(-c3ccccc3)co2)CCC1` [N-((1-(3-fluoropyridin-2-yl)cyclobutyl)methyl)-4-phenyloxazol-2-amine], with “D (D=>20 uM)”; and `Fc1cccnc1C1(CNc2nc(-c3ccccc3)cs2)CCC1` [N-((1-(3-fluoropyridin-2-yl)cyclobutyl)methyl)-4-phenylthiazol-2-amine], with “B (B=1-10 uM)”. For the compound `Cn1cc(-c2nnc(NCC3(c4ncccc4F)CCC3)s2)cn1` [N-((1-(3-fluoropyridin-2-yl)cyclobutyl)methyl)-5-(1-methyl-1H-pyrazol-4-yl)-1,3,4-thiadiazol-2-amine], the “Mean AC1.4” value (Table 3) was “D (D=>20 uM)”. Still for that read-out and setting: then `Cn1nccc1-c1nnc(NCC2(c3ncccc3F)CCC2)s1` [N-((1-(3-fluoropyridin-2-yl)cyclobutyl)methyl)-5-(1-methyl-1H-pyrazol-5-yl)-1,3,4-thiadiazol-2-amine], with “D (D=>20 uM)”; and `Fc1cccnc1C1(CNc2nnc(-c3nccs3)s2)CCC1` [N-((1-(3-fluoropyridin-2-yl)cyclobutyl)methyl)-5-(thiazol-2-yl)-1,3,4-thiadiazol-2-amine], with “B (B=1-10 uM)”. The same measure, in the same setting: the value for `Fc1cccnc1C1(CNc2nnc(-c3cscn3)s2)CCC1` [N-((1-(3-fluoropyridin-2-yl)cyclobutyl)methyl)-5-(thiazol-4-yl)-1,3,4-thiadiazol-2-amine] was “B (B=1-10 uM)”.
